From a melting point compilation (Tetko et al.; mined from patent text by program, amines drawn as free bases though some values may be those of a salt)

Row | Structure (SMILES) | melting point [°C]
1 | Clc1cccc(Oc2ccc(N3CCNCC3)nc2)c1 | 70 to 73
2 | CC(C)N(C(=O)c1c(Cl)cccc1[Si](C)(C)C)C(C)C | 96 to 97.5
3 | COC(=O)C1=C(CCc2ccccc2)NC(CC(=O)NCCO)=C(C(=O)OC)C1c1c(Cl)cccc1Cl (stereo unspecified) | 192 to 194
4 | CC(C)(C)OC(=O)NNC(=O)c1ccc(O)c(O)c1 | 148
5 | CCCCCCCCCCCCCCCCCC(=S)SCC(C)C(=O)N1CCCC1C(=O)O (stereo unspecified) | 50 to 51
6 | CSc1ccc2c(c1)CN(C(C)C)S(=O)(=O)N2CCCl | 74 to 75
7 | Cc1cccc(NC(=O)c2ccn3c2CSC3c2cccnc2)n1 (stereo unspecified) | 162
8 | O=[N+]([O-])c1c(O)c(O)cc2ccccc12 | 141 to 143
9 | CC(C)Cc1cc(OCCc2ccsc2)c2[nH]nc(Nc3nccs3)c2c1 | 150 to 151
10 | CCc1cc2[nH]c(=O)c(=O)[nH]c2cc1CC | > 360
11 | O=Cc1cccn1-c1ccc2ccc3[nH]c(=O)c(=O)[nH]c3c2c1 | > 250
12 | Cn1cc(C(=O)Cl)c([N+](=O)[O-])n1 | 68 to 70
13 | Cc1cc(Oc2csc(C(F)(F)F)c2)nc(-c2ccc(C(F)(F)F)cc2)n1 | 83.5 to 85
14 | CCCCCCCCCCCCC1=C(Cl)C(=O)c2ccccc2C1=O | 80 to 82
15 | CCCc1nn(-c2ccc(C(F)(F)F)cn2)cc1CCCCOc1ccc(CC(=O)O)cc1 | 121 to 122
16 | COC(=O)Cc1nn(Cc2ccc(Br)cc2F)c(=O)c2ccccc12 | 151 to 153
17 | c1ccc2c3c([nH]c2c1)CCC3 | 135
18 | Cn1c(=O)c2c(OCc3ccccc3)cccc2n2cnc(-c3noc(C4CC4)n3)c12 | 221 to 224
19 | C#Cc1cc(Oc2cnc(NC(CO)CO)nc2N)c(C(C)C)cc1OC | 136 to 139
20 | COC(=O)c1ccc(S(=O)(=O)N2CC[C@@H](Sc3cc(C(C)(C)C)c(O)c(C(C)(C)C)c3)C2)n1C | 83 to 85
21 | CCC(CC)(CC(=O)Nc1cccc(OCc2ccc3ccc(OC)cc3n2)c1)C(=O)O | 96 to 97
22 | Cc1cc(COc2ccc(F)c(C(N)=O)c2F)ccn1 | 185 to 186
23 | CCCOc1ccc(-c2c(Cl)ncn2-c2ccc(S(C)(=O)=O)cc2)cc1 | 161 to 163
24 | CC1(C)C(=O)Nc2ccc(-c3coc(C#N)c3)cc21 | 200 to 201

Row | Structure (SMILES) | melting point [°C]
25 | CC1(COc2ccc(N3CCN(c4ccc(C(F)(F)F)cc4)CC3)cc2)Cn2cc([N+](=O)[O-])nc2O1 (stereo unspecified) | 231 to 233
26 | CC(Nc1nc(Oc2cccc3sc(N)nc23)cc(-c2ccc(C(F)(F)F)cc2)n1)c1ccc(F)cc1 (stereo unspecified) | 231
27 | CC(=O)NC(Cl)C(Cl)(Cl)CCl (stereo unspecified) | 70 to 72
28 | CC1Cc2cc(F)c(F)cc2C1=O (stereo unspecified) | 66 to 68
29 | O=c1[nH]c(NCCSCc2ccco2)ncc1Cc1cccnc1 | 136 to 139
30 | ClC(=NNc1ccccc1)c1cccc(Cl)c1 | 80 to 81.5
31 | NC(=O)CCCCCCCOc1nc(-c2ccccc2)c(-c2ccccc2)n1-c1ccccc1 | 152 to 154
32 | Nc1ccc(C(=O)N(CCN2CCC(C(=O)c3ccc(F)cc3)CC2)c2cccc(N)c2)cc1 | 108 to 110
33 | CCCOC(=O)C1=C(C)NC(C)=C(C(=O)OCC)C1c1ccccc1C#N (stereo unspecified) | 156
34 | CC(=O)SCc1ccc(I)cc1 | 40 to 41
35 | O=C(O)CCc1conc1-c1ccc(-c2ccccc2)cc1 | 169 to 170
36 | COc1ccc(CN(CCCC#N)Cc2ccc(OC)cc2)cc1 | 56 to 58
37 | Cc1nc2ccc(NCCCN3CCC(OC(c4ccccc4)c4ccccc4)CC3)nn2c1C(=O)O | 101 to 103
38 | CC(=O)N(C(C)=O)c1c(C#N)cnn1-c1ncc(C(F)(F)F)cc1Cl | 130 to 132
39 | O=C1C(=Cc2c[nH]c3ccccc23)N(Cc2ccccc2)C(=O)N1Cc1cc(C(F)(F)F)cc(C(F)(F)F)c1 | 154 to 156
40 | O=C1CC(c2cccc(-n3ccnn3)c2)=Nc2cc(O)c(C#Cc3ccc(F)cc3)cc2N1 | 243
41 | Cc1nn(-c2cc(Oc3ccc([N+](=O)[O-])cc3)c(Cl)cc2F)c(=O)n1C(F)F | 115 to 117
42 | O=C(O)CC(C(=O)O)c1ccn2c(=O)c(C(=O)O)ccc2c1 (stereo unspecified) | 250
43 | COc1ccc(CN2C(=O)C3(COc4cc5c(cc43)OCCO5)c3ccccc32)cn1 (stereo unspecified) | 161 to 162
44 | CN(Cc1ccccc1)Cc1c(-c2ccc(NC(=O)NCCO)cc2)sc2c1c(=O)n(-c1ccccc1)c(=O)n2Cc1c(F)cccc1F | 220 to 222
45 | CCCCCCCCCCOC(=O)C1=C(C)NC(N)=C(C(=O)OCC)C1c1cccc([N+](=O)[O-])c1 (stereo unspecified) | 190 to 191
46 | O=C(O)c1cc(OCc2ccccc2)c(C(=O)c2ccc(Cl)cc2)c([N+](=O)[O-])c1 | 137 to 138
47 | NC(=S)C(CN1CCOCC1)c1ccccn1 (stereo unspecified) | 102 to 104
48 | CCCCCCCCCCCCCCCCOc1ccc(OCC(=O)Nc2ccccc2CO)cc1 | 128 to 131

Row | Structure (SMILES) | melting point [°C]
49 | O=C(c1ccccc1)c1cc2c3ccccc3[nH]c(=O)n2n1 | 308 to 311
50 | CC(=O)OC(COc1ccc(/C=C/C(=O)O)c(Oc2ncc(C(F)(F)F)cc2Cl)c1)COC(C)C (stereo unspecified) | 134 to 135
51 | CCNC(=O)CNc1c(C#N)cnn1-c1ccc(C(F)(F)F)cc1Cl | 144 to 145
52 | COc1ccc(C[C@H](CC(=O)N2CCOCC2)C(=O)OCc2ccccc2)cc1 | 77 to 79
53 | COc1nc(NC(=O)NS(=O)(=O)c2ccccc2C(=O)OCCCl)nc(OC)n1 | 171 to 174
54 | COc1ccc(CC(=O)Nc2cccc3c2C(=O)c2c-3n[nH]c2-c2ccc(OC)cc2)cc1 | 280
55 | COC(=O)c1nc(Cl)cnc1N=S(C)C | 167 to 169
56 | Cc1ccc(-c2nc3sc4ccccc4n3c2CC(=O)N(C)C)s1 | 216 to 218
57 | COc1cc(-c2sc3nc(N)[nH]c(=O)c3c2C)ccc1Cl | 312 to 322
58 | c1ccc2c(C3CCNCC3)n[nH]c2c1 | 213 to 215
59 | CCn1cc(C(=O)O)c2ccc(Cl)cc21 | 225 to 227
60 | CCOC(=O)c1cc(N)ccc1OC(C)=O | 82.5 to 83
61 | O=C(c1ccc(Nc2ccnc3cc(C(F)(F)F)ccc23)cc1)N1CCC(Sc2ccc(F)cc2)CC1 | 211 to 214
62 | CNC(=O)Nc1ccc(N2CCN(c3ccncc3)CC2)cc1 | 258 to 260
63 | Cc1ccc(Nc2cccc3c2OC(COS(=O)(=O)c2ccc(C)cc2)C3)cc1 (stereo unspecified) | 118 to 120
64 | CCCNc1nnc(Cc2c(Cl)cncc2Cl)c2ccc(OC)cc12 | 222 to 223
65 | Cc1ccc(C(=O)Nc2ccccc2N2CCN(Cc3ccc[nH]3)CC2)c(-c2ccc(C(F)(F)F)cc2)c1 | 196 to 198
66 | COC(=O)c1ccc(OC)c(I)n1 | 175 to 178
67 | Oc1ccc(-c2c3ccccc3cc3oc4ccccc4c23)c(O)c1 | 201 to 202
68 | O=C(O)Cc1ccc2c(c1)Cc1cccnc1O2 | 218
69 | Cc1cccc2c3c([nH]c12)CCNC3=O | 300 to 302
70 | O=C1CCC(N2Cc3c(OCc4ccc(CN5CCN(S(=O)(=O)c6ccc(F)c(F)c6)CC5)cc4)cccc3C2=O)C(=O)N1 (stereo unspecified) | 225 to 227
71 | CCCc1cc(=O)[nH]c2cc(OC)cc(OC)c12 | 193 to 196
